In patent US6417235B2, “Method and use of α-amino-β-mercapto-ethane derivatives as dicarbonyl scavengers for treatment of conditions resulting from protein, lipid, and DNA damage” (University of Kentucky Research Foundation, priority 2000, dated 2002):

What was measured:
ΦX-174 DNA = experiment: AGE-BSA photosensitized cleavage of ΦX-174 DNA under solar simulated light; assay type: biochemical; settings: solar simulated light, AGE-BSA as photosensitizer
Method: Glycated Proteins as Photosensitizers of DNA Damage in Skin Photoaging. D-Penicillamine inhibits genotoxic consequences of AGE-photosensitization. Accumulation of AGEs on dermal elastin and collagen occurs during normal skin aging in humans. The hypothesis was tested that the intra- and extracellular accumulation of the complex yellow-brown AGE-chromophores contributes to skin aging and carcinogenesis induced by chronic exposure to sunlight. As a possible molecular mechanisms for a detrimental synergism of AGE-formation and exposure to sunlight, photosensitized DNA damage by AGEs was assessed in a simple in vitro system. Irradiation of covalently closed circular ΦX-174 DNA with increasing doses of solar simulated light (SSL) in the presence of AGE-BSA was used to detect photosensitized DNA nicking as a measure of DNA photodamage (panel A). […] Addition of several antioxidants modulated the photosensitization effect (panel C).

histone H1 = experiment: Histone H1 crosslinking by 12% SDS-PAGE with silver staining; assay type: biochemical, calf; settings: 5 mM; histone H1, ADP-ribose reaction system
Method: The following screening scheme is used (see Table 1): AGE-fluorescence is determined at the beginning and after five days of incubation. Test compounds that are inherently fluorescent (designated false negatives) were identified by the initial fluorescence measurement (See Table 1, NADH for example). Since these are compounds of uncertain activity, they are diverted directly to the second stage of the screen. Aminoguanidine, a known glycation inhibitory agent, was used as a positive control for suppression of the increase on AGE-fluorescence. After five days incubation and plate reading, fluorescence quenchers (designated false positives) are excluded by measuring the quenching activity of the test compound by addition of AGE modified protein having known fluorescence activity to one microtiter plate well containing test compound in the complete reaction mixture. For this, AGE-BSA is used as the AGE-type fluorescence standard. This AGE-BSA test excludes false positives compounds that function by fluorescence quenching. If fluorescence quenching occurs the test compound is excluded from further screening. […] The protein is visualized by silver staining of the gel. […] A compound that passes the first and second stage of the screen is considered a glycation inhibitor and is further evaluated for biological activity as described below. […]

[1] = test system: glycation of histone H1 by ADP-ribose; experiment: Screening of inhibitors of nonoxidative advanced glycation: AGE-fluorescence on 96 well-microtiter plate; assay type: biochemical, calf; settings: (± SEM, n = 2); for AGE-fluorescence (day 5): complete reaction under air
Method: All operations were carried out at 4° C. Chromatin was isolated from fresh calf thymus by extraction with 0.14 M NaCl, 0.05 M Na2S2O5, as described earlier in Wondrak supra. After repeated extraction with 5% HCl)4 and centrifugation (1500 g), histone H1 was precipitated from the supernatant by addition of TCA (20% final concentration v/v). The histone H1 precipitate was colleted by centrifugation (12,000 g) and deionized water. After extensive dialysis (MW cut-off: 12,000-14,000) against water for 48 h, the sample was lyophilized and the protein was stored at 4° C. SDS-PAGE (12%) was used to analyze the purity of the preparation.
Earlier studies have reported that D-penicillamine inhibits collagen crosslinking and AGE fluorescence caused by sugars (McPherson, J. D., Shilton, B. H., and Walton, D. J. 1988. Role of Fructose in Glycation and Cross-Linking of Proteins. Biochemistry 27, 1901-1907) and reaction of D-penicillamine with aldehyde groups of proteins (Deshmukh, K., and Nimm, M. E. 1969. A Defect in the Intramolecular and Intermolecular Cross-linking of Collagen caused by Penicillamine. J. Biol. Chem. 244, 1787-1795). A number of different penicillamines and penicillamine derivatives were tested to determine the inhibition of AGE-fluorescence on histone H1 at physiological pH. The reaction conditions for the glycation of histone H1 by ADP-ribose mimic physiological conditions to the extent possible. Reaction mixtures contain 1.5 mg/ml histone Hl, 1.0 mM ADP-ribose, 50 mM potassium phosphate buffer, pH 7.4, 37° C. D,L-penicillamine; L-penicillamine; D-penicllamine; D-penicillaminedisulfide and N,S- isopropylidine-D-penicillamine were tested in concentrations of 1,5 and 10 mM. The detected reaction parameter representing the accumulation of protein damage is AGE-fluorescence ((λex=[…]), which is suppressed by the presence of a compound with inhibitory activity. Generation of AGE-type fluorescence (λex=355 nm; λem=405 nm) was monitored over time at 37° C; which is in the range of the broad excitation/emission maxima of AGE compounds. To allow high throughput sample processing on 96 well microtiter plates, the reaction volumes are 300 μl. Fluorescence on the 96-well microtiter plates was measured using an automated microtiter fluorescence reader. Fluorescence of the 1 ml samples of the glycation reaction mixtures was measured using a Hitachi F-200 fluorescence spectophotometer, and prior to measurement the protein sample is dialyzed extensively against water (MW cutoff=[…]), lyophilized and reconstituted in reaction buffer. For inhibitor screening the plate is read on a Fluoroskan II plate reader (Titertek, ICN) at the excitation/emission wavelengths set forth above at a bandwidth of 35 nm.
The following screening scheme is used (see Table 1): AGE-fluorescence is determined at the beginning and after five days of incubation. Test compounds that are inherently fluorescent (designated false negatives) were identified by the initial fluorescence measurement (See Table 1, NADH for example). Since these are compounds of uncertain activity, they are diverted directly to the second stage of the screen. Aminoguanidine, a known glycation inhibitory agent, was used as a positive control for suppression of the increase on AGE-fluorescence. After five days incubation and plate reading, fluorescence quenchers (designated false positives) are excluded by measuring the quenching activity of the test compound by addition of AGE modified protein having known fluorescence activity to one microtiter plate well containing test compound in the complete reaction mixture. For this, AGE-BSA is used as the AGE-type fluorescence standard. This AGE-BSA test excludes false positives compounds that function by fluorescence quenching. If fluorescence quenching occurs the test compound is excluded from further screening. […] The protein is visualized by silver staining of the gel. […]

CC(C)(S)[C@@H](N)C(=O)O [D-Penicillamine]
effect on AGE-BSA photosensitized DNA cleavage (ΦX-174 DNA): inhibited the photosensitization effect of AGE-BSA in a dose dependent relationship
inhibition of histone H1 crosslinking (histone H1): inhibit histone H1 crosslinking
AGE-fluorescence (day 0) ([1]; compound 1 mM): 1.2 (0.0) relative units
AGE-fluorescence (day 5) ([1]; compound 1 mM): 11 (0.6) relative units
AGE-fluorescence (day 0) ([1]; compound 5 mM): 1.1 (0.1) relative units
AGE-fluorescence (day 5) ([1]; compound 5 mM): 2.9 (0.3) relative units
AGE-fluorescence (day 0) ([1]; compound 10 mM): 1.1 (0.0) relative units
AGE-fluorescence (day 5) ([1]; compound 10 mM): 1.4 (0.1) relative units
